Where two headings read alike, the source gives them in different places.
Key:
[1] = format: physicochemical; conditions: for ThT Cat. / ThT-Fluorescence (categorical): ThT-active if fluorescence at least twice the control; for Rel. ThT: n-fold ThT fluorescence vs control (PBS, 10% DMSO), 4 µL 1 mg/mL fibrils + 20 µL 50 µM ThT, 15 min RT, ex 440 / em 488 nm, triplicate
Procedure, shortened: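 Fibrils (1 mg/mL solution) were mixed with 50 µM ThT in PBS for 15 min at RT, and fluorescence was read at λex 440/λem 488 nm against a PBS blank, as a triplicate mean ± SD. Zeta potential came from electrophoretic mobility (Smoluchowski) after 1 d aggregation at 1 mg/mL in PBS pH 7.4, diluted into 1 mM KCl.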

[2] = β-sheet content by ATR-FT-IR; format: physicochemical; conditions: for ß-sheet / %: ATR-FT-IR of lyophilised 1 mg/mL PNF solution, peak integral ratio 1625-1635 cm-1, measured once; for b -sheet / %: Fig. S7 panel A, β-sheet content by ATR-FT-IR
Procedure, shortened: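 Conversion rate: fluorescamine fluorescence (ex 365/em 470 nm, 20 min RT) of 3 kDa filtrate versus unfiltered PNF, CR = 100 − 100 × filtrate/original intensity, triplicates. β-sheet content came from ATR FT-IR of lyophilized 1 mg/mL PNF powder, 64 scans.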

[3] = tested on: HIV-1 infection of TZM-bl cells; assay: HIV-1 infectivity enhancement assay, β-galactosidase luminescence; format: cell-based; conditions: for Rel-EFC: infection relative to EF-C (QCKIKQIINMWQ = 1); for Log10 Infection Rel EFC: log10 of infection relative to EF-C; for Log Infectivity: Log10 infection relative to EF-C, asymmetric std dev errors; for Log10 Infection Rel EF-C: HIV-1 infection of TZM-bl cells; for Abs. Inf. / RLU s-1: absolute infection rate, peptide 1.3 µM on cells, virus preincubated 10 min with fibrils, read 3 days post infection; for Abs. Inf.: β-galactosidase luminescence; for Log10 Inf. rel. to EF-C: log10 of HIV-1 infection of TZM-bl cells relative to EF-C (EF-C = 0); for Log10 of Rel to EFC (Feb2021): Log10 of infection relative to EF-C, all peptides of FigS16
[4] = Conversion rate (CR) assay with fluorescamine; format: physicochemical; set-up: key to CR: % = 100−100×filtrate/original fluorescence intensity
Procedure: For ATR FT–IR spectroscopy measurements, 200 µL of the respective 1 mg/mL PNF solution was lyophilized and the resulting powder used for measurement. All spectra were recorded on a Bruker Tensor 27 spectrometer with a diamond crystal as ATR element (PIKE MiracleTM, spectral resolution 2 cm^-1). Every sample was measured with 64 scans. Data were analyzed with OriginLab software and calculation of β–sheet content was conducted according to a previous report. TEM. For TEM measurements 5 µL of PNF fibrils (1 mg/mL) were placed on copper grids coated with carbon and formvar layer (300 mesh, Plano GmbH). After 10 min incubation time, the grids were staining with 4% uranyl acetate solution for 2.5 min and washed with water. Measurements were performed on a Jeol 1400 electron microscope with 120 kV acceleration voltage. CR Assay. For the determination of the amount of peptide monomer converting into nanostructures the amine reactive dye fluorescamine was used analogous to a previous reported protocol. Briefly, 100 µL of the preformed PNF solution was centrifuged in a Vivaspin 500 tube (3 kDa MWCO) to separate fibers from free peptide monomer (16200 x g, 4 °C, 45 min). The filtrate and 100 μL of the non-filtered PNF sample were lyophilized and dissolved in 30 μL DMSO. 10 μL of the filtrate and non-filtered DMSO samples were submitted in a black UV Star® 384 microliter well–plates (Greiner bio–one) and 3 μL of the fluorescamine solution (10 mg/mL, DMSO) was added to measure the fluorescence enhancement. After 20 min of incubation at RT, fluorescence was recorded on an Infinite® M1000 PRO microplate reader (Tecan) at λem = 470 nm upon excitation at λex = 365 nm with 10 nm bandwidths and multiple reads per well (3×3). Measurements were repeated in triplicates and averaged with standard deviation. All values were calculated as n-fold fluorescence enhancement (DMSO only as a reference was set to 1). The conversion rate CR was defined according to the equation Eq. (3).3 CR=100−100×fluorescenceintensityfiltrate/fluorescenceintensityoriginal[%]

[5] = Fig. S7 panel A (plotted against β-sheet content), TZM-bl cells
[6] = Fig. S7 panel B (plotted against CR), rounded to two decimals, TZM-bl cells
[7] = Log10 of infection rate relative to EF-C, Figure 3A source data
[8] = infection rate relative to EF-C, log10, data of Figure 2D
[9] = infection rate relative to EF-C, log10, source data of Figure 2C
[10] = HIV-1 infection relative to EF-C, Fig 23 plot, panels A and B, mean of 3 values
[11] = HIV-1 infection relative to EF-C, Fig 23 plot, single data point, replicate 1
[12] = HIV-1 infection relative to EF-C, Fig 23 plot, single data point, replicate 2
[13] = HIV-1 infection relative to EF-C, Fig 23 plot, single data point, replicate 3
[14] = absolute infection signal, HIV-1 on TZM-bl cells
[15] = n-fold infection vs virus only, relative to that of EF-C, 1.3 µM peptide
[16] = Fig. S7 panel B, conversion rate, fluorescamine assay
[17] = conversion of monomer to nanostructures, 3 kDa MWCO filtration, fluorescamine, ex 365 / em 470 nm, triplicate
[18] = conversion rate, fluorescamine assay

Row | Substance | Tht category (> 2 to blank = +) ([1]; Fig S10 panel D) | ThT Cat. ([1]; Fig S10 panel E) | Tht category (> 2 to blank = +) ([1]; FigS12 panel A) | ThT Cat, ([1]; FigS12 panel B) | ThT Cat, ([1]; ThT category, 1 if Rel. ThT >2) | ThT Cat. ([1]; ThT category, 1 if Rel. ThT >2) | ThT Cat. / ThT-Fluorescence (categorical) [1] | b -sheet / % [2] [%] | Rel-EFC ([3]; 1.3 µM peptide) | Log10 Infection Rel EFC ([3]; 1.3 µM peptide) | Log Infectivity [3, 5] | Log Infectivity [3, 6] | Log10 Infection Rel EF-C [3, 7] | Log10 Infection Rel EF-C [3, 8] | Log10 Infection Rel EF-C [3, 9] | Abs. Inf. / RLU s-1 ([3]; mean of triplicate) [RLU s-1] | Abs. Inf. [3, 14] | Log10 Inf. rel. to EF-C [3] | CR / % [4, 16] [%] | CR [4, 18] | also measured
1 | CKAKAQANM | 0 (ThT-inactive (N-Fold <2)) | 0 (ThT-inactive (N-Fold <2)) | 0 (ThT-inactive (N-Fold <2)) | 0 (ThT-inactive (N-Fold <2)) | 0 (ThT-inactive (N-Fold <2)) | 0 (ThT-inactive (N-Fold <2)) | 0 (ThT-inactive (N-Fold <2)) | 34.22 | 0,03 | -1,5 | -1.504 | -1.5 | -1.5 | -1.504 | -1.504 | 430 | 430 | -1.504 | 47.9 | 47.87 | Rel. ThT [1]: 1.2; ß-sheet / % [2]: 34%; Inf. rel. EF-C [3, 10]: 0.01839; Inf. rel. EF-C [3, 11]: 0.01398; Inf. rel. EF-C [3, 12]: 0.02152; Inf. rel. EF-C [3, 13]: 0.01966; Inf. rel. EF-C [3, 15]: 0.03; CR / % [4, 17]: 48%
2 | CKAKAQANMWQ | 0 (ThT-inactive (N-Fold <2)) | 0 (ThT-inactive (N-Fold <2)) | 0 (ThT-inactive (N-Fold <2)) | 0 (ThT-inactive (N-Fold <2)) | 0 (ThT-inactive (N-Fold <2)) | 0 (ThT-inactive (N-Fold <2)) | 0 (ThT-inactive (N-Fold <2)) | 39.38 | 0,04 | -1,36 | -1.359 | -1.36 | -1.36 | -1.359 | -1.359 | 600 | 600 | -1.359 | 92.5 | 92.45 | Rel. ThT [1]: 1.9; ß-sheet / % [2]: 39%; Inf. rel. EF-C [3, 10]: 0.02574; Inf. rel. EF-C [3, 11]: 0.02321; Inf. rel. EF-C [3, 12]: 0.03098; Inf. rel. EF-C [3, 13]: 0.02305; Inf. rel. EF-C [3, 15]: 0.04; CR / % [4, 17]: 92%
3 | CKFKFQFW | 0 (ThT-inactive (N-Fold <2)) | 0 (ThT-inactive (N-Fold <2)) | – | – | 0 (ThT-inactive (N-Fold <2)) | 0 (ThT-inactive (N-Fold <2)) | 0 (ThT-inactive (N-Fold <2)) | 42.53 | 0,88 | -0,06 | -0.05512 | -0.06 | -0.06 | -0.05512 | -0.05512 | – | – | – | 98.7 | 98.71 | Log10 of Rel to EFC (Feb2021) [3]: -0.06; Abs. Inf. ([3]; absolute HIV-1 infection signal, TZM-bl cells): 17862.22222
4 | CKFKQFF | 0 (ThT-inactive (N-Fold <2)) | 0 (ThT-inactive (N-Fold <2)) | 0 (ThT-inactive (N-Fold <2)) | 0 (ThT-inactive (N-Fold <2)) | 0 (ThT-inactive (N-Fold <2)) | 0 (ThT-inactive (N-Fold <2)) | 0 (ThT-inactive (N-Fold <2)) | 45.4057 | 0,01 | -2,17 | -2.171 | -2.17 | -2.17 | -2.171 | -2.171 | – | 260 | -2.171 | 90 | 90.05 | Abs. Infection at 0.26 µM ([3]; peptide 0.26 µM, mean of n = 3, Figure 4A): 366.7; Infect 1 0.26 µM ([3]; peptide 0.26 µM, replicate 1, absolute infection signal, Figure 4A): 260; Infect 2 0.26 µM ([3]; peptide 0.26 µM, replicate 2, absolute infection signal, Figure 4A): 50; Infect 3 0.26 µM ([3]; peptide 0.26 µM, replicate 3, absolute infection signal, Figure 4A): 790; Abs. Infection at 1.3 µM ([3]; peptide 1.3 µM, mean of n = 3, Figure 4A): 260; Infect 1 .3 µM ([3]; peptide 1.3 µM, replicate 1, absolute infection signal, Figure 4A): 440; Infect 2 1.3µM ([3]; peptide 1.3 µM, replicate 2, absolute infection signal, Figure 4A): 160; Infect 3 1.3 µM ([3]; peptide 1.3 µM, replicate 3, absolute infection signal, Figure 4A): 180
5 | CKFKQFFNMWQ | 1 (ThT. Cat is 1, if Rel. ThT >2) | 1 (ThT. Cat is 1, if Rel. ThT >2) | – | – | 1 (ThT. Cat is 1, if Rel. ThT >2) | 1 (ThT. Cat is 1, if Rel. ThT >2) | 1 (ThT. Cat is 1, if Rel. ThT >2) | 59.11 | 0,61 | -0,21 | -0.2148 | -0.21 | -0.21 | -0.2148 | -0.2148 | – | 23486.66667 | -0.2148 | 98.7 | 98.72 | Log10 of Rel to EFC (Feb2021) [3]: -0.21
6 | CKIKIQI | 1 (ThT. Cat is 1, if Rel. ThT >2) | 1 (ThT. Cat is 1, if Rel. ThT >2) | – | – | 1 (ThT. Cat is 1, if Rel. ThT >2) | – | 1 (ThT. Cat is 1, if Rel. ThT >2) | 53 | 1,02 | 0,01 | 0.0081 | 0.01 | 0.01 | 0.0081 | 0.0081 | 19406.66667 | – | – | 54 | 54 | ThT Cat. ([1]; ThT fluorescence category, 1 if Rel. ThT >2): 1 (ThT. Cat is 1, if Rel. ThT >2); FTIR ß-sheet content [2]: 53%; Log10 of Rel to EFC (Feb2021) [3]: 0.01; Abs. Infection at 0.26 µM ([3]; peptide 0.26 µM, mean of triplicate): 4967; Infection RLU/s, 1.3 µm abs ([3]; peptide 1.3 µm (so in the source), mean of the 3 replicates): 19406.66667 RLU/s

Reference: article PMC10447463, “Data-mining unveils structure–property–activity correlation of viral infectivity enhancing self-assembling peptides” (Nature Communications, 2023)
